Results published in publication PMC7792806, “Development of Second Generation Activity-Based Chemical Probes for Sirtuins” (Molecules, 2020).

What was measured:
[1] = tested on: SIRT1, SIRT2, SIRT3, SIRT5, and SIRT6; assay: Labeling in recombinant sirtuin mixture, isoform selectivity; type: biochemical, human
Description: Figure 4 Labeling of SIRT5 by probe 2B. (A) Dose-dependent labeling of SIRT5 by probe 2B in recombinantly expressed, partially purified sirtuin mixture. SIRT1, SIRT2, SIRT3, SIRT5, and SIRT6 were mixed and incubated with 500 μM NAD^+ and increasing concentrations of 2B. The samples were incubated at 37 °C for 10 min and subjected to UV irradiation for 20 min, and then “click” conjugated to TAMRA-azide; (B) Chemical structure of H3K9Suc; (C) Peptide competition. The labeling of SIRT5 by probe 2B decreased with increasing concentrations of the competitor peptide, H3K9Suc.
Remarkably, probe 2C was also able to label individual sirtuin isoforms in cell lysates. HEK293 cells overexpressing human SIRT2 were lysed, and the lysate was subjected to the labeling by 10 μM probe 2C.
A typical labeling experiment was performed as follows: in a 0.7 mL Eppendorf tube, purified recombinant human sirtuin (10 μM) was incubated with NAD^+ (500 μM) and activity-based probe at 37 °C for 10 min. The sample was transferred to a clear-bottom 96-well plate, placed on ice, and irradiated at 365 nm with a UV-lamp in a cold room. […] Then, destained gel was analyzed with in-gel fluorescence scanning using a Biorad ChemiDoc MP imager (excitation 532 nm, 580 nm cut-off filter and 30 nm band-pass). […]

SIRT3 = target: T1, SIRT3 (Homo sapiens, UniProt Q9NTG7); assay: Sirtuin inhibition assay (HPLC), SIRT3; type: biochemical; conditions: substrate H3K9Ac; 500 μM NAD+, 500 μM peptide, 10 μM sirtuin, pH 7.5, 37 °C
T1 construct: SIRT3 (102-399); made in house
T1 sequence (Q9NTG7 102-399): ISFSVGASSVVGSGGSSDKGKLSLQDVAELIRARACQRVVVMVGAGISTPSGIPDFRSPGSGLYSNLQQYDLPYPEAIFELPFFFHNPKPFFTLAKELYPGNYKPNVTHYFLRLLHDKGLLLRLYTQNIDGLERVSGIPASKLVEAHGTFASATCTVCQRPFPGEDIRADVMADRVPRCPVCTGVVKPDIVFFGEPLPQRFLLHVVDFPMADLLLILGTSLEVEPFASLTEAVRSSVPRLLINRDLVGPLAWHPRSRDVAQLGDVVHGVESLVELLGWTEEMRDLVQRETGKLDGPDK
Description: (§1) Plasmids of SIRT1 (full length), SIRT2 (38-356), SIRT3 (102-399), and SIRT5 (34-302) were generous gifts from Dr. Hening Lin (Cornell University, Ithaca, NY, USA). SIRT6 was a gift from Cheryl Arrowsmith (Addgene plasmid #28271). The proteins were expressed and purified according to previously published protocols. The identity of the protein was confirmed by tryptic digestion followed by LC-MS/MS analysis performed at the Vermont Genetic Network (VGN) Proteomics Facility. Protein concentrations were determined by Bradford assay (Thermo Fisher Scientific, Rockford, IL, USA).
(§2) A typical reaction contained 500 μM NAD^+ and 500 μM peptide substrate (H3K9Ac for SIRT2, SIRT3 and SIRT6, p53K382Ac for SIRT1 and SIRT5) of varying concentrations of a small molecule probe in 100 mM phosphate buffer pH 7.5. The reactions were initiated by the addition of 10 μM of sirtuin and were incubated at 37 °C before being quenched by 8 μL of 10% TFA. The incubation time was controlled so that the conversion of substrate was less than 15%. The samples were then injected on an HPLC fitted to a Macherey-Nagel Nucleosil C18 column. NAD^+, NAM and AADPR (acetyl-ADP-ribose) peaks were resolved using a gradient of 0 to 20% methanol in 20 mM ammonium acetate. Chromatograms were analyzed at 260 nm. Reactions were quantified by integrating areas of peaks corresponding to NAD^+ and AADPR. Rates were plotted as a function of small molecule probe concentration, and points were fitted to the following equation:ν(%) = ν0(%) − [ν0(%)(10^x)/(10^x + IC50)](1) where ν(%) represents the turnover rate expressed as percent enzymatic activity remaining, and ν0(%) represents the uninhibited turnover rate expressed as an enzymatic activity of 100%. The variable x represents the log[probe] in nanomolar. IC50 values were derived from this equation.

SIRT5 = target: T2, SIRT5 (Homo sapiens, UniProt Q9NXA8); assay: Sirtuin inhibition assay (HPLC), SIRT5; type: biochemical
T2 construct: SIRT5 (34-302); made in house
T2 sequence (Q9NXA8 34-302): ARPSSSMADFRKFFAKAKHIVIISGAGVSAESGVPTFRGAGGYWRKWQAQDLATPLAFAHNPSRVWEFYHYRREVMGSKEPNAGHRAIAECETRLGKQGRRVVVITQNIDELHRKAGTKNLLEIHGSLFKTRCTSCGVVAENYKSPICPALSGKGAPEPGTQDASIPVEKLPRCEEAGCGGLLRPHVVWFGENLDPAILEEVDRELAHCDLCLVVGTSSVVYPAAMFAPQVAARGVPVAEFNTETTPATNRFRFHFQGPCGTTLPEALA
Description: as §1, §2

SIRT2 = target: T3, SIRT2 (Homo sapiens, UniProt Q8IXJ6); assay: Sirtuin inhibition assay (HPLC), SIRT2; type: biochemical
T3 construct: SIRT2 (38-356); made in house
T3 sequence (Q8IXJ6 38-356): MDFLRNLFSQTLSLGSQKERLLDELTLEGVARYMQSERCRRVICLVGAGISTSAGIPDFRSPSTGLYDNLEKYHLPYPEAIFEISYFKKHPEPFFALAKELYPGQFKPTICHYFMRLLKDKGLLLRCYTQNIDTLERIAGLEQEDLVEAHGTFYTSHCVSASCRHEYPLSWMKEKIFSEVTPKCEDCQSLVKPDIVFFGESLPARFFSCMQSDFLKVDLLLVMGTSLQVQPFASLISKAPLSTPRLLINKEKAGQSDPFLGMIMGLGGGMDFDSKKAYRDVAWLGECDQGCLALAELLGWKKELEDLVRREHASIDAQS
Description: as §1, §2

IC50 (SIRT3) | increase of SIRT5 inhibition compared with 1B (SIRT5; ratio of IC50s) | IC50 (SIRT2; substrate H3K9Ac, 500 μM NAD+, 500 μM peptide, 10 μM sirtuin, pH 7.5, 37 °C) | IC50 (SIRT5; substrate p53K382Ac, 500 μM NAD+, 500 μM peptide, 10 μM sirtuin, pH 7.5, 37 °C, NI = Not inhibited) | increase of SIRT2 inhibition compared with 1C (SIRT2; ratio of IC50s) | selectivity for SIRT2 over SIRT6 (SIRT2; ratio of IC50s) | SMILES | labeling of other sirtuin isoforms in sirtuin mixture ([1]; partially purified recombinant sirtuin mixture) | isoforms labeled in sirtuin mixture [1]
> 5 mM | ~1.7 fold | > 5 mM |  |  |  | C#CCCCC1(CCC(=O)N[C@@H](CCCCNC(=S)CCC(=O)O)C(=O)N[C@@H](C)C(=O)N[C@@H](C)C(=O)OC)N=N1 [Probe 2B] | negligible labeling of the other sirtuin isoforms | 
> 2 mM |  |  | > 5 mM | 3 fold | ~2 fold | C#CCCCC1(CCC(=O)N[C@@H](CCCCNC(=S)CCCCCCCCCCCCC)C(=O)N[C@@H](C)C(=O)N[C@@H](C)C(=O)OC)N=N1 [Probe 2C] |  | highlighting SIRT1, SIRT2, and SIRT6
